According to article PMC7470163, “Effects of ticagrelor on the pharmacokinetics of rivaroxaban in rats” (Pharmaceutical Biology, 2020):
Read-outs that look alike come from different tables or passages of the source.

Experiments:
[1] = tested on: rivaroxaban metabolism in RLMs; assay: In vitro interaction study: inhibition of rivaroxaban metabolism by ticagrelor in RLMs; format: in vitro ADME, Sprague-Dawley rat; conditions: read-out: IC50 (ticagrelor decreased rivaroxaban metabolic clearance)
Description: The pooled rat liver microsomes (RLMs) were obtained from 8 rats, which were weighed and homogenized with cold […] phosphate-buffered saline (PBS) containing 0.25 mM sucrose. After centrifuging at 11000 rpm for 15 min, the supernatants were separated and transferred into new tubes for another 15 min centrifugation at 11000 rpm. Then ultracentrifugation was performed at 10000 rpm at 4 °C for 1 h, and the microsomal pellets were resuspended with cold 0.01 mM PBS and stored at −80 °C. The protein concentration of RLMs was determined using the Bradford Protein Assay Kit (Thermo Scientific, Waltham, MA, USA).
Ticagrelor was applied as the inhibitor to determine the half-maximal inhibitory concentration (IC50). The incubation mixture in a total volume of 200 μL contained 0.5 mg/mL of RLMs, 100 mM potassium phosphate buffer (pH 7.4), rivaroxaban (20 μM), ticagrelor (1, 2.5, 5, 10, 25, 50 and 100 μM) and 1 mM NADPH. After preincubation in a shaking water bath at 37 °C for 5 min, NADPH was added to initiate the reaction in a final volume of 200 μL. […]
The GraphPad (version 8.0; GraphPad Software Inc., San Diego, CA, USA) was applied to calculate IC50 and plot plasma concentration-time curves. The pharmacokinetic parameters using non-compartmental analysis were calculated by DAS (version 3.2.8; Wenzhou Medical University, China). […]

[2] = tested on: CYP3A4 (4-hydroxylation of midazolam); set-up: method as in Zhou et al. [2011]; conditions: read-out: IC50 (inhibition of 4-hydroxylation of midazolam); in vitro; ref Zhou et al. [2011]; cited from earlier work
[3] = set-up: method as in Becker et al. [2011]; conditions: PLATO study; ref Becker et al. [2011]; cited from earlier work
[4] = set-up: method as in Teng and Butler [2013]; conditions: concomitant use of ticagrelor; ref Teng and Butler [2013]; cited from earlier work
[5] = set-up: method as in Butler and Teng [2011]; conditions: oral administration of ticagrelor, healthy volunteers; ref Butler and Teng [2011]; cited from earlier work
[6] = In vivo pharmacokinetic experiment: oral rivaroxaban in rats with or without ticagrelor pre-treatment (plasma, UPLC-MS/MS); set-up: species or system Sprague-Dawley rats; conditions: for AUC(0-t) / AUC(0-inf) / Cmax / half-life / MRT inf / MRT last: po; for MRT inf: read-out: MRT (0–∞); for MRT last: read-out: MRT(0–t); for CLint scaled: read-out: CL (text: intrinsic clearance) (converted)
Description: Chromatographic separation was performed using the Acquity UPLC system (Waters Corp., Milford, MA, USA) and ACQUITY UPLC HSS T3 column (2.1 × 100 mm, 1.8 μm) at 40 °C. The mobile phase comprising acetonitrile (A) and 0.1% formic acid water (B) was set with a flow rate of 0.40 mL/min. The gradient programme was applied as follows: 0–0.5 min, 30% A; 0.5–1 min, 30–95% A; 1–2 min, 95% A; […], 95% A; 2.5–2.6 min, 95–30% A; 2.6–3 min, 30% A. The total time required for analysis was 3 min. The sample manager underwent a strong wash (methanol water, 50/50, V/V) and a weak wash (methanol water, 10/90, V/V) after each injection.
XEVO TQD triple quadrupole mass spectrometer was equipped with electrospray ionization (ESI), and multiple-reaction monitoring (MRM) mode was selected for quantization. The precursor ion and product ion were m/z 435.93→144.81 for rivaroxaban and m/z 285.1→193.1 for diazepam (internal standard, IS), respectively. The optimal MS parameters were defined as follows: the cone voltages were set at 35 V and 50 V for rivaroxaban and IS; the collision energies were set at 30 V and 25 V for rivaroxaban and IS. Masslynx 4.1 software (Waters Corp., Milford, MA, USA) was used for data acquisition, and the UPLC-MS/MS chromatogram of blank plasma that was spiked with rivaroxaban and IS was shown below (Figure 2).
Ten specific pathogen-free (SPF) grade Sprague–Dawley rats (male, 220 ± 20 g) were provided by Wenzhou Medical University Laboratory Animal Research Centre. All experimental procedures and protocols were reviewed and approved by the Animal Care and Use Committee of Wenzhou Medical University and were in accordance with the Guide for the Care and Use of Laboratory Animals (ID Number: wydw2019-650). Ten rats were randomly divided into two groups: the ticagrelor group (n = 5) and the control group (n = 5). Rats were bred at 25 °C with 60 ± 5% humidity and a 12 h dark/light cycle. Enough tap water and normal chow were provided ad libitum. The rats were placed under the above conditions for one week before initiating the experiment.
The ticagrelor group was pre-treated with ticagrelor by oral gavage at a dose of 10 mg/kg/day (dissolved in CMC-Na solution) for two weeks before the administration of rivaroxaban. The control group also received equal amounts of the vehicle (CMC-Na solution). Rivaroxaban was dissolved in dimethyl sulfoxide (DMSO) and was then diluted with polyethylene glycol 200 so that DMSO accounted for 5% of the total volume. Each group of rats was given an oral gavage of rivaroxaban at a dose of 10 mg/kg, and then blood was collected via the rat’s tail vein for analysis at 0.083, 0.25, 0.5, 1, 2, 3, 4, 6, 8, 12 and 24 h. Samples were collected into 1.5 mL centrifuge tubes and were immediately centrifuged at 4000 rpm for 10 min.
Every 100 µL of rat plasma was added with 200 µL of acetonitrile in 0.5 μg/mL of IS, followed by vortex mixing for 1 min. After centrifugation at 13000 rpm for 15 min, 5 µL of supernatant was prepared for UPLC-MS/MS system to analyse.
The GraphPad (version 8.0; GraphPad Software Inc., San Diego, CA, USA) was applied to calculate IC50 and plot plasma concentration-time curves. The pharmacokinetic parameters using non-compartmental analysis were calculated by DAS (version 3.2.8; Wenzhou Medical University, China). Statistical comparisons within groups were conducted by SPSS (version 25.0; SPSS Inc., Chicago, IL, USA), using Student’s t-test. Values of p < 0.05 were considered statistically significant.

[7] = Enzyme kinetics of rivaroxaban metabolism in rat liver microsomes; format: in vitro ADME, Sprague-Dawley rat; conditions: Sprague-Dawley, rat, rat liver microsomes, pH 7.4, RLMs 0.5 mg/mL, 37 °C, 1 mM NADPH, R squared 0.979
Description: (§1) The pooled rat liver microsomes (RLMs) were obtained from 8 rats, which were weighed and homogenized with cold […] phosphate-buffered saline (PBS) containing 0.25 mM sucrose. After centrifuging at 11000 rpm for 15 min, the supernatants were separated and transferred into new tubes for another 15 min centrifugation at 11000 rpm. Then ultracentrifugation was performed at 10000 rpm at 4 °C for 1 h, and the microsomal pellets were resuspended with cold 0.01 mM PBS and stored at −80 °C. The protein concentration of RLMs was determined using the Bradford Protein Assay Kit (Thermo Scientific, Waltham, MA, USA). […] The incubation time was 30 min. Incubations were initiated following a 5 min pre-incubation in a shaking water bath at 37 °C. 1 mM NADPH was added to initiate the reaction in a final volume of 200 μL. The reaction was stopped immediately by cooling to −80 °C. After that, 20 μL IS working solution and 200 μL acetonitrile were added. Centrifugation was performed at 13000 rpm for 5 min after vortexing for 1 min, and the supernatant was collected. Each incubation sample study was performed in separate EP tubes, performed in triplicate and analysed by UPLC-MS/MS. We selected 2 μL of RLMs with a concentration of 0.5 mg/mL in PBS for 30 minutes as the condition for enzyme kinetic studies. […]

[8] = tested on: rat liver microsomes (RLMs); assay: as above; format: in vitro ADME, Sprague-Dawley rat; conditions: RLMs 0.5 mg/mL, 30 min, 37 °C, 1 mM NADPH, R squared 0.979
Description: as §1

[9] = set-up: method as in Abrams and Emerson [2009]; conditions: phase I trials; ref Abrams and Emerson [2009]; cited from earlier work
CYP3A4 = tested on: CYP3A4; set-up: method as in Kvasnicka et al. [2017]; conditions: ref Kvasnicka et al. [2017]; cited from earlier work
CYP2J2 = tested on: CYP2J2; set-up: method as in Kvasnicka et al. [2017]; conditions: ref Kvasnicka et al. [2017]; cited from earlier work
[10] = set-up: method as in Mueck et al. [2013]; conditions: co-administration of ketoconazole; ref Mueck et al. [2013]; cited from earlier work
[11] = set-up: method as in Eriksson et al. [2009]; Altena et al. [2014]; conditions: with CYP3A4 inducer rifampicin; ref Eriksson et al. [2009]; Altena et al. [2014]; cited from earlier work
[12] = set-up: method as in Mega et al. [2012]; conditions: low-dose rivaroxaban (2.5 mg or 5 mg twice daily) co-administered with DAPT; ref Mega et al. [2012]; cited from earlier work
[13] = male, Sprague-Dawley, rat, plasma, 10 mg/kg, rivaroxaban 10 mg/kg oral, rats pre-treated with ticagrelor 10 mg/kg/day for 14 days
[14] = male, Sprague-Dawley, rat, plasma, 10 mg/kg, rivaroxaban 10 mg/kg oral, rats, control group (no ticagrelor)
[15] = male, Sprague-Dawley, rat, plasma, 10 mg/kg, rivaroxaban 10 mg/kg oral, rats, without ticagrelor pre-treatment
[16] = male, Sprague-Dawley, rat, plasma, rivaroxaban 10 mg/kg oral, rats, control group (no ticagrelor)
[17] = rats, oral ticagrelor 10 mg/kg/day for 14 days vs control
[18] = rivaroxaban 10 mg/kg oral, rats pre-treated with ticagrelor 10 mg/kg/day for 14 days

## CCCSc1nc(N[C@@H]2C[C@H]2c2ccc(F)c(F)c2)c2nnn([C@@H]3C[C@H](OCCO)[C@@H](O)[C@H]3O)c2n1 [ticagrelor, Ticagrelor]
[1]
  IC50: 14 µM
[2]
  IC50: […]
[3]
  non-CABG major bleeding: 4.5%
  non-procedure-related major bleeding: 3.1%

## C[C@H]1O[C@@H](O[C@H]2[C@@H](O)C[C@H](O[C@H]3[C@@H](O)C[C@H](O[C@H]4CC[C@@]5(C)[C@H](CC[C@@H]6[C@@H]5C[C@@H](O)[C@]5(C)[C@@H](C7=CC(=O)OC7)CC[C@]65O)C4)O[C@@H]3C)O[C@@H]2C)C[C@H](O)[C@@H]1O [digoxin]
[4]
  increase of digoxin AUC: 28%
  increase of digoxin Cmax: 75%

## COC(=O)[C@H](c1ccccc1Cl)N1CCc2sccc2C1 [clopidogrel]
[3]
  non-CABG major bleeding: 3.8%
  non-procedure-related major bleeding: 2.3%

## C#C[C@]1(O)CC[C@H]2[C@@H]3CCc4cc(O)ccc4[C@H]3CC[C@@]21C [ethinyloestradiol]
[5]
  increase of AUC0–t of ethinyloestradiol: 20%
  increase of Cmax of ethinyloestradiol: 31%
  increase of Cmin of ethinyloestradiol: 20%

## O=C(NC[C@H]1CN(c2ccc(N3CCOCC3=O)cc2)C(=O)O1)c1ccc(Cl)s1 [Rivaroxaban]
[6]; male, Sprague-Dawley, rat, plasma, 10 mg/kg, rivaroxaban 10 mg/kg oral single dose, rats pre-treated with ticagrelor 10 mg/kg/day oral for 14 days, n=5, mean ± SD
  AUC(0-t): 3480 ± 754 ng·h/mL
[6]; male, Sprague-Dawley, rat, plasma, 10 mg/kg, rivaroxaban 10 mg/kg oral single dose, rats, control group (vehicle, no ticagrelor), n=5, mean ± SD
  AUC(0-t): 1060 ± 291 ng·h/mL
[6]; [13]
  AUC(0-inf): 3580 ± 736 ng·h/mL
  Cmax: 691 ± 238 ng/mL
  half-life: 5.12 ± 1.65 h
  MRT inf: 5.97 ± 1.11 h
  MRT last: 5.18 ± 0.91 h
[6]; [14]
  AUC(0-inf): 1070 ± 299 ng·h/mL
  Cmax: 221 ± 53.3 ng/mL
  half-life: 2.64 ± 0.72 h
  MRT inf: 4.41 ± 0.79 h
  MRT last: 4.32 ± 0.66 h
[6]; male, Sprague-Dawley, rat, plasma, 10 mg/kg, rivaroxaban 10 mg/kg oral, rats with ticagrelor pre-treatment 10 mg/kg/day for 14 days
  AUC(0-t): 3480 ± 754 ng·h/mL
[6]; [15]
  AUC(0-inf): 1070 ± 299 ng·h/mL
  AUC(0-t): 1060 ± 291 ng·h/mL
[6]; male, Sprague-Dawley, rat, plasma, rivaroxaban 10 mg/kg oral, rats with ticagrelor pre-treatment 10 mg/kg/day for 14 days
  AUC(0-inf): 3580 ± 736 ng·h/mL
[6]; male, Sprague-Dawley, rat, plasma, rivaroxaban 10 mg/kg oral, rats pre-treated with ticagrelor 10 mg/kg/day for 14 days
  CLint scaled: 48.2 mL/min/kg
[6]; [16]
  Tmax: 2 ± 0.71 h
  CLint scaled: 166 mL/min/kg
[6]; [17]
  increase of AUC value of rivaroxaban: 3.3 fold
  increase of Cmax value of rivaroxaban: 3.1 fold
[6]; [18]
  T max: 2.00 ± 0.71 h
  Vz: 21.89 ± 9.00 L/kg
[6]; rivaroxaban 10 mg/kg oral, rats, control group (no ticagrelor)
  Vz: 36.23 ± 5.48 L/kg
[7]
  Km at 30 min: 19.1 µM
[8]
  Vmax: 3.37 pmol/min/mg
[9]
  time to peak plasma concentration (Tmax): 1.5 to 4 h
CYP3A4
  share of total rivaroxaban elimination involving CYP3A4: about 18%
CYP2J2
  share of total rivaroxaban elimination involving CYP2J2: about 14%
[10]
  increase in Cmax value of rivaroxaban: 1.7 fold
  increase in the mean AUC value of rivaroxaban: 2.6 fold
[11]
  reduction in the systemic exposure of rivaroxaban: 50%
[12]
  risk of intracranial hemorrhage: 0.6%
  risk of major bleeding: 2.1%
